Legend:
[1] = target: CfEcR(CDEF)-GST and CfUSP-GST fusion proteins; assay: Competitive 3H-ponasterone A binding assay, bacterial GST fusion proteins; parameters: species or system Choristoneura fumiferana; details: bacterial CfEcR(CDEF)-GST/CfUSP-GST extracts, 3H-ponasterone A displacement
Source text: Bacterial glutathion-S-transferase (GST) fusion proteins of the spruce budworm (Choristoneura fumiferana) EcR (CfEcR), containing CDEF domains only, and ultraspiracle protein (CfUSP) were also used in radioligand displacement assays. cDNA encoding the CDEF domains of CfEcR were constructed following PCR amplification using primers that contain BamH1 and EcoRI sites (Perera S C, M Sundaram, Krell P J, Retnakaran A, Dhadialla T S, S R Palli, 1999 Arch. Insect Biochem. Physiol. 41 In Press). The PCR produce was digested with BamHI and EcoRI and cloned into pGEX-3X vector obtained from Pharmacia Biotech. CfUSP coding region was amplified using primers that contain BamH1 and EcoRI sites and cloned into to pGEX-2T vector obtained from Pharmacia Biotech. E. coli transformed with each of the two vectors were grown and induced to produce the fusion proteins as detailed in the Pharmacia Biotech GST-technical bulletin.
The concentrations of competitors that inhibited 50% of tritiated ponasterone A binding (IC50) was determined by incubating Kc or Plodia nuclear extracts or extracts of bacteria producing CfEcR(CDEF)-GST and CfUSP-GST fusions proteins with ^3H-ponasterone A (66,000 dpm per reaction) in the presence of a range of concentrations (0.1 nM to 10 μM) of test compounds. In the case of binding reactions using bacterial fusion proteins, 20 or one μl extract of bacteria producing CfEcR(CDEF)-GST or CfUSP-GST fusion proteins, respectively, were included per binding reaction. The assay conditions and determination of total and non-specific binding was as described above. The volume of competitor in solvent, like that for 20E or solvent alone, was kept at 1% of total reaction volume by using a 100 fold concentrated stock solution (i.e. a 100 fold dilution of stock solutions). The remainder of the assay was as described above. Each reaction was carried out in duplicate per concentration per test compound. […]

Spodoptera exigua = assay: Translaminar movement into cotton leaves, mortality of neonate beet armyworm larvae; format: in vivo; details: versus CE-1
Procedure: A study was conducted to evaluate translaminar movement of two compounds into cotton leaves using neonate beet armyworm larvae, Spodoptera exigua, as the model system.
Two treatments were evaluated: emulsifiable concentrates of CE-1 and Ligand 3 (5% and 19%, respectively), at a concentration of 100 μg/ml to simulate spray tank concentrations. These treatments were then compared with plants treated with a chemical standard known to have excellent translaminar movement (emamectin benzoate, 0.16% EC [20 μg/ml], Merck & Co.) and with nontreated plants.
Four-week-old cotton, Gossypium hirsutum L. ev. Stoneville, plants were treated with each treatment by painting the top surface of a single replicate leaf/plant with a corresponding treatment. Plants were held in a controlled environment glasshouse maintained at 27° C. until needed. Residual effectiveness was evaluated by challenging treated and nontreated foliage with neonate beet armyworm larvae, Spodoptera exigua (Hubner), on 3 dates: 1, 7 and 14 days after treatment (DAT). On each sample date, the single treated leaf/plant was excised from each of five replicate plants per treatment. […] Mortality of larvae was recorded 4 days after infestation. […]
Percentage mortality data were transformed to the arcsine of the square-root and then analyzed by ANOVA using JMP (Ver. 3.2.1). […]

## COc1cccc(C(=O)NN(C(=O)c2cc(C)cc(C)c2)C(C)(C)C)c1C [Ligand 3]
[1]
  Bacterial CfECR log(1/IC50): 8.76
Spodoptera exigua
  Effectiveness at killing S. exigua larvae from translaminar movement (comparison in words): significantly more effective than CE-1

— patent US20010044151A1, “Ligands for modulating the expression of exogenous genes via an ecdysone receptor complex” (priority 1998, published 2001)
